The structures appear in SMILES notation.

For the assay, the system named is PMM2-CDG patients. As to the kind of experiment: Liver enzymes (AST, ALT) in patients on epalrestat. It is filed as in vivo, human. Particulars: for ALT: C < 45 U/l; for AST: C: < 50 U/l. The text has this:
The primary objective of the study was to assess the efficacy and safety of epalrestat treatment in 3 PMM2-CDG pediatric subjects prior to a planned Phase III clinical trial (Oral epalrestat therapy in Pediatric Subjects with PMM2-CDG, NCT04925960). The secondary objective was to assess the ability of epalrestat to improve clinically relevant aspects of PMM2-CDG such as increased urine polyols (sorbitol, mannitol), abnormal glycosylation (carbohydrate deficient transferrin), abnormal coagulation (ATIII=antithrombin III), impaired liver function (ALT=Alanine Transaminase, AST=Aspartate Transaminase), neurologic function (Brief Ataxia Rating Scale=BARS), severity of phenotype (Nijmegen Pediatric CDG Rating Scale=NPCRS). The ability of epalrestat to inhibit polyol production was monitored by evaluating urine polyol levels (sorbitol, mannitol), which are elevated in PMM2-CDG. Next, carbohydrate deficient transferrin, which is abnormal in PMM2-CDG, was evaluated in order to assess improvement of glycosylation following epalrestat treatment. CDT mono-oligo/dioligo ratio and a-oligo/dioligo ratio are used to evaluate glycosylation abnormalities. Transferrin normally occurs with two glycan chains (di-oligo). In the case of glycosylation abnormalities, glycan chains are missing (A-oligo transferrin has no glycan chains, mono-oligo has one glycan chain, di-oligo has two glycan chains). The higher ratio of a-oligo/di-oligo and mono-oligo/di-oligo indicate glycosylation abnormalities are present. Therefore, improvement in a-oligo/di-oligo and mono-oligo/di-oligo ratios can be used to monitor improvement or worsening of glycosylation status. Changes in the liver enzymes AST, ALT, which are frequently elevated in PMM2-CDG, were monitored both as part of a safety study and as part of monitoring clinical improvement in coagulation. Neurologic improvement was assessed by modified BARS scores in 2 patients (3rd patient was not eligible for the test due to age at the start of the trial). NPCRS was assessed at every visit to assess changes in the severity of the patients' phenotype. Additionally, the frequency of adverse events, changes in vital signs, complete blood count, and changes in BMI were monitored.
Two patients were started on epalrestat on single patient investigational new drug (IND) (P5 IRB: 19-010017; IND #145262; P6 Protocol PMM2-CDG-001/A). Epalrestat was initiated on the parents' own initiative in the third patient (P7). Two patients were in their second year of epalrestat treatment, while the third, was in the 3rd year of treatment. Physical, neurological, and biochemical examinations were performed in 3 PMM2-CDG patients at baseline, and at every three months after the start of the epalrestat treatment. Patients underwent NPCRS phenotype severity assessment and biological sampling at every visit. Epalrestat (Ono Pharmaceuticals, Osaka, Japan) was taken orally 3 times per day (TID) before meals in a divided dose, with dosage escalation throughout the treatment. The pharmacological profile of epalrestat was as described elsewhere (Ligezka et al, Ann. Neurol., 90(6):887-900 (2021)). The starting dosage in P5 and P6 was 0.8 mg/kg/day, while P7 was started on 0.5 mg/kg/day due to their young age. P7 dosage was increased to 0.8 mg/day after a month, once safety was established. Blood and urine samples were collected routinely. Urine polyols, carbohydrate deficient transferrin (CDT), anti-thrombin III (ATIII), liver enzymes (ALT, AST), and complete blood count (CBC) were performed. Modified Brief Ataxia Rating Scale was used to assess ataxia in the 2 patients (P5, P6; P7 was not eligible for the test due to age). The modified BARS scale included Archimedes spiral test, but not the abnormalities of the ocular pursuit system and the scale range was 0-54. Goal attainment scale (GAS) was administered as described per study protocol (ClinicalTrials.gov Identifier: NCT04199000). […]

In turn, `CC(/C=C1\SC(=S)N(CC(=O)O)C1=O)=C\c1ccccc1` [epalrestat] had an ALT (P5, 12 months, 1.5 mg/kg day, baseline 23) of 24 U/L; an ALT (P5, 24 months, 2 mg/kg day, baseline 23) of 25 U/L; an ALT (P5, 28 months, 3 mg/kg day, baseline 23) of 25 U/L; an ALT (P6, 12 months, 1.5 mg/kg day, baseline 67) of 32 U/L; an ALT (P6, 18 months, 3 mg/kg day, baseline 67) of 49 U/L; an ALT (P7, 12 months, 1.5 mg/kg day, baseline 997) of 105 U/L. Also, the AST was 37 U/L (P5, 12 months, 1.5 mg/kg day, baseline 48); 34 U/L (P5, 24 months, 2 mg/kg day, baseline 48); 40 U/L (P5, 28 months, 3 mg/kg day, baseline 48); 40 U/L (P6, 12 months, 1.5 mg/kg day, baseline 58); 38 U/L (P6, 18 months, 3 mg/kg day, baseline 58); 80 U/L (P7, 12 months, 1.5 mg/kg day, baseline 548). Under “P5-P7, words”, the liver transaminase levels entry is recorded as “improvement”.
